Laboratory results: patent publication US20240335439A1, “USE OF AND METHOD FOR TELAPREVIR IN PREPARATION OF DRUG FOR TREATING AN ISCHEMIA/REPERFUSION INJURY AND CYTOPROTECTIVE DRUG” (THE THIRD XIANGYA HOSPITAL OF CENTRAL SOUTH UNIVERSITY, priority 2021, published 2024)

Legend:
[1] = test system: ischemic stroke rat models; test: Ischemic stroke rat model (MCAO 2 h, reperfusion 24 h); type: in vivo, SD rats; conditions: telaprevir 60 mg/kg after 2 hours of ischemia and 1 hour of reperfusion
Procedure: Experimental animals: Healthy male SD rats weighing 250-300 g. The experimental animals were raised for one week in an environment with a temperature of 25° C., a relative humidity of 60%, free drinking water, and timed and quantified feeding, and then administered according to the requirements of each experimental group.
Method for building an ischemic stroke rat model: A cerebral ischemia/reperfusion rat model was prepared by a middle cerebral artery occlusion (MCAO) method. […]
Rat brain TTC staining and infarct volume measurement: After the rat was anesthetized, the brain was quickly taken out, the olfactory bulb and posterior brain were removed, and five coronal brain slices having a thickness of about 2.0 mm were cut from the antiunion, immediately placed in a 1% TTC solution, incubated at 37° C. in dark for 30 minutes, and then soaked and immobilized in a 10% paraformaldehyde solution. […] The infarct area of each brain slice was measured by ImageJ, and an infarct volume of the whole brain was calculated according to a formula: infarct volume=[(sum of front infarct areas of all slices+sum of back infarct areas of all slices)/2]×the thickness of each slice, that is, a sum of infarct volumes of all brain slices. […]
Neurological function scores of rats were detected and cerebral infarct volumes were measured.

H9c2 myocardial cells = test: Hypoxia/reoxygenation injury of H9c2 myocardial cells, LDH release; type: cell-based; conditions: H9c2, hypoxia 8 h / reoxygenation 12 h; telaprevir 10 μM; vs Hypoxia, FIG. 4
Procedure: H9c2 myocardial cells were purchased from the Xiangya Cell Bank of Central South University.
Cell culture method: Following a conventional cell culture method, the above cells were cultured in a DMEM medium (containing 10% of fetal bovine serum). When the cells fused and grew to 80-90%, the cells were digested with a trypsin. After the cells shrank and became round and the intercellular space was obvious, the digestion was immediately terminated with a medium, the cells were dispersed and blown evenly into a single suspension state, passaged in bottles, and cultured in a 37° C. cell incubator containing 5% of CO2. […]
Cell injury was detected by an LDH release rate.
The measurement followed the operating instructions of a commercially available lactate dehydrogenase kit (Shanghai Beyotime Biotechnology Co., Ltd., China). […] The absorbance of the sample was measured at 490 nm. Calculation: LDH release rate of cells (%)=(absorbance of the drug treatment group-absorbance of the control group)/(absorbance of the maximum enzyme release group-absorbance of the control group)×100%. When the absorbance value of each group was calculated, the absorbance value of the background blank control group was first subtracted.

CCC[C@H](NC(=O)[C@@H]1[C@H]2CCC[C@H]2CN1C(=O)[C@@H](NC(=O)[C@@H](NC(=O)c1cnccn1)C1CCCCC1)C(C)(C)C)C(=O)C(=O)NC1CC1 [telaprevir]
neurological impairment symptoms (Longa neurological function score) of rats ([1]; ##P<0.01 vs I/R, FIG. 2B): significantly improve | cerebral infarct volume of rats (TTC staining) ([1]; vs I/R, FIG. 2A): significantly decreased | release of LDH in the myocardial cell medium (LDH release rate) (H9c2 myocardial cells): significantly reduce
